From patent US8871815B2, “Therapeutic compounds” (Signature Therapeutics, Inc., priority 2007, dated 2014)
Where two headings read alike, the source gives them in different places. Marks after values point to notes of the source that are not given here.

Experiments:
rats = test: Separate rat study, bolus IV, 1% in cremaphor, sleep time; type: in vivo; settings: for Sleep Time (duration of anesthesia): 7 mg/kg bolus IV
male Sprague-Dawley rats [1] = test: Anesthetic effects in rats, bolus IV, Loss of Righting Reflex (LORR); type: in vivo, rat
Protocol: (§1) Also measured was minimum dose to achieve LORR and maximum tolerated dose (MTD).
(§2) The ranges of doses studied were 1.9, 2.3, 3.0, 7.0, 13.7, 14.0 and 15.2 mg/kg for Compound 1 and 3.5, 4.0, 7.0 and 14.0 mg/kg for […].

[2] = as above; type: in vivo, rat; settings: male, Sprague-Dawley, rat, in vivo; bolus IV, rats; read-out: MTD (maximum tolerated dose)
Protocol: as §1, §2

Beagle dogs [3] = test: Hemodynamic effects (blood pressure) in beagle dogs, bolus IV; type: in vivo, dog; settings: 4 min after administration
Protocol: The study was a crossover design. […] The MTD was defined as the dose that reduced mean arterial blood pressure (MAP) by 50% or to less than 50 millimeters of mercury (mmHg or mm Hg). All animals received supplemental oxygen and, if needed, ventilatory support after 4 min of apnea.
Hemodynamic data, such as mean arterial pressure (MAP), were recorded at baseline, 1, 2, 4, 8, 15, 20 and 30 min. Compound 1 was administered at 5, 10, 15 and 30 mg/kg to 3, 6, 6 and 3 dogs respectively. […] Data were analyzed with a 2-way ANOVA followed by t-test with Bonferroni correction for multiple comparisons.

male Sprague-Dawley rats [4] = test: Anesthetic effects in rats, bolus IV, Loss of Righting Reflex (LORR); type: in vivo, rat; settings: 49 mg/kg bolus IV
Beagle dogs [5] = system: Beagle dogs
ferrets = test: Anti-emetic activity in ferrets (morphine sulfate induced emesis); settings: 6 ferrets
Protocol: Male descented ferrets weighing 1.0-1.5 kg with vascular access ports in the jugular vein were housed on a 12/12-hour light/dark cycle under controlled temperature, with food and water provided ad libitum. On each study day, food was presented to ferrets one hour prior to dosing. Immediately prior to dosing, food and water were removed. A 1% Compound 1 formulation, prepared as described in Example 5 and formulated in accordance with Example 4, or […] was administered by IV infusion to the ferrets; see Wynn R L et al, 1993, Eur J Pharmacol 241, 42 re […] administration in ferrets. After administration of Compound 1 or […], animals were placed in clean, transparent cages (with lids) and left unrestrained for a 45-min observation period by an observer blinded to the specific treatment administered.
Episodes of retching and/or vomiting were considered separate episodes when the interval between retches and/or vomits exceeded 5 sec.
After termination of the infusion, 0.5 mg/kg morphine sulfate was administered subcutaneously and the ferrets were monitored for 45 min as described above. Six additional ferrets were administered subcutaneously 0.5 mg/kg morphine sulfate only.

mongrel dogs = test: Anesthetic and hemodynamic effects in chronically instrumented mongrel dogs, total intravenous anesthesia; type: in vivo, dog; settings: IV bolus then stepwise IV infusions 0.25-2.0 mg/kg/min
Protocol: Assessments included hemodynamic performance parameters such as blood pressure, heart rate, and cardiac output as well as clinical chemistry parameters and EEG analysis.
General anesthesia was induced in the dogs by IV administration of 7 mg/kg […], and the dogs were tracheally intubated and mechanically ventilated. General anesthesia was maintained using 2.2% end-tidal sevoflurane in oxygen. A thoracotomy was performed at the fifth left intercostal space, and heparin-filled catheters were placed in the proximal descending thoracic aorta (P50 pressure transducer Gould, Oxnard, Calif.), and in the right and left atria to provide IV access. An ultrasonic transit-time flow probe (T108, Transonic Systems, Ithaca, N.Y.) was placed around the ascending thoracic aorta. A […] Doppler flow probe (Model HDP-20-3.5, Triton Surgical Technologies, San Diego, Calif.) was placed around the left anterior descending coronary artery. Six MHz sonomicrometer crystals (Hartley, Houston, Tex.) were implanted in the subendocardium. A high fidelity micromanometer (P7, Konigsberg Instruments, Pasadena, Calif.) was inserted into the left ventricle. […]
The dogs were fasted overnight. […] EEG was recorded continuously during the experiment. Arterial blood gas and chemistry measures included pH, pO2, sO2, pCO2, tCO2, carbonate, potassium, sodium, and base excess, and were measured immediately following blood draws using a blood gas and chemistry analyzer (ABL-505, Radiometer, Copenhagen). […] Following stabilization, baseline measurements of EEG, hemodynamics, ECG, and blood gases were recorded. Blood samples were drawn for PK and clinical chemistry, and pressure volume loops were generated and data recorded.
Following induction, the dogs were tracheally intubated, and mechanically ventilated using 50% oxygen in nitrogen throughout the subsequent drug infusion and recovery periods. […] MAP was monitored continuously, and dosing was discontinued immediately if MAP decreased below 50 mmHg at any time or if the heart rate increased over 200 beats per minute. […]

[6] = target: T1, phosphodiesterase 2 (PDE2) (Homo sapiens, UniProt O00408); test: Cerep Diversity Profile: enzymes, PDE2; type: biochemical; settings: tested at 10 μM; read-out: inhibition of control binding, PDE2
T1 construct: Cerep, Inc
T1 sequence (O00408 whole entry): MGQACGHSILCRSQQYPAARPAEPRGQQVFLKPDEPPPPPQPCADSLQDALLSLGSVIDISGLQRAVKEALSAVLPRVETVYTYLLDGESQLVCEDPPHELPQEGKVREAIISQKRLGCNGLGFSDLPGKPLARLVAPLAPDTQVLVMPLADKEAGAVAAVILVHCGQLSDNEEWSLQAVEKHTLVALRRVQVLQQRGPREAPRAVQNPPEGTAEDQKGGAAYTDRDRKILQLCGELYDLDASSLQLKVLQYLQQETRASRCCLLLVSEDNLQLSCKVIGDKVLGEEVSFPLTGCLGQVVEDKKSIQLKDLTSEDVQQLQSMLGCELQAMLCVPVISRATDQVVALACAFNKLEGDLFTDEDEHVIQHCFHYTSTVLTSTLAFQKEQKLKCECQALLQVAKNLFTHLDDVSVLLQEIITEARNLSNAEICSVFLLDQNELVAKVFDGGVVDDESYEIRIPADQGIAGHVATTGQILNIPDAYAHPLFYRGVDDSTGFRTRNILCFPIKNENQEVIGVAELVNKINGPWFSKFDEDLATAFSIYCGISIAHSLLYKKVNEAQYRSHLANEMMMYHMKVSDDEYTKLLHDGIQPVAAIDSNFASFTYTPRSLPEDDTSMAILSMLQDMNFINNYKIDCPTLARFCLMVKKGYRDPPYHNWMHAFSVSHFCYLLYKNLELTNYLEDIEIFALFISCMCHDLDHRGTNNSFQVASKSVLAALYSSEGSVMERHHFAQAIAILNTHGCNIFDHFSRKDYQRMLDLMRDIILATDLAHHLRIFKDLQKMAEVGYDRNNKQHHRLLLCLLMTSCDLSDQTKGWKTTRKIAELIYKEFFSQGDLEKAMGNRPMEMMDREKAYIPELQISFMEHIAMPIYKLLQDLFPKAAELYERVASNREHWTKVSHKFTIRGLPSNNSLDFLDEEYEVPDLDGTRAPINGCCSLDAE

pigs [7] = test: in vivo; settings: pig, in vivo, iv
Protocol: (§3) Experiments were performed on commercial farm-bred swine of either sex (mean weight 33.6 kg). Anesthesia was induced with isoflurane. Intravascular access was obtained from an ear vein. Each pig was intubated and mechanically ventilated. Tissue oxygenation was monitored using continuous pulse oximetry placed on the tongue. Ventilation was monitored using an inspired/expired gas analyzer that measured oxygen, carbon dioxide, and potent inhalation agent concentrations. Ventilator settings were adjusted as needed to maintain steady state.
(§4) ECG was monitored throughout the study. Arterial blood pressure was monitored through the cannulated left femoral artery. MAP, systolic and diastolic arterial pressures and heart rate were collected every 5 seconds. An internal jugular vein was cannulated with a pulmonary artery catheter for thermodilution estimates of cardiac output and blood temperature. Body temperature was maintained at 37° C. Instrumentation for EEG monitoring was accomplished using an adhesive electrode array over the fronto-occipital regions (Aspect Medical. Norwood, Mass., USA).
(§5) Metabolic and hemodynamic parameters for each group were compared at multiple time points using an unpaired two-tailed Student t test. To account for multiple comparisons and maintain the probability of a type I error below 0.05, P values less than 0.025 were considered significant.

in vivo = settings: both, pig, in vivo, iv
Protocol: as §3, §4, §5

[8] = system: alpha2, NMDA, PCP, benzodiazepine or opioid receptors; test: Cerep Diversity Profile: other receptors; type: binding; settings: tested at 10 μM
pigs [9] = test: Hemodynamic effects, arterial blood gas and serum chemistry in pigs, IV infusion; type: in vivo, pig; settings: IV infusion, pigs (Compound 1 0.384, propofol 0.750 mg/kg/min)
Protocol: Anesthesia was induced with isoflurane. Intravascular access was obtained from an ear vein. Each pig was intubated and mechanically ventilated.
ECG was monitored throughout the study. […] Body temperature was maintained at 37° C.
Arterial blood gas samples from pigs infused with Compound 1 were taken and analyzed for blood gas and serum chemistry values; mean values are reported in Table 4.

[10] = Aqueous phase concentration in lipid emulsion (ultrafiltration, LC/MS/MS); type: physicochemical; settings: 1% lipid emulsion formulation
Protocol: The concentration of Compound 1 in the aqueous phase (aqueous phase concentration) of a lipid emulsion formulation was determined.
A one percent (1%) Compound 1 formulation was formulated in accordance with Example 4, Compound 1 being prepared as described in Example 5.

[11] = morphine sulfate 0.5 mg/kg subcutaneously alone, 45 min observation
[12] = 15 min IV infusion at 1 mg/kg/min, then 0.5 mg/kg morphine sulfate sc, 45 min

| Compound | Sleep Time (duration of anesthesia) (rats; rats) [min] | HD50 (dose required to cause 50% of the rats to lose righting reflex) (male Sprague-Dawley rats [1]; bolus IV, rats) [mg/kg] | HD7min (dose required to produce 7 minutes of anesthesia) (male Sprague-Dawley rats [1]; bolus IV, rats) [mg/kg] | MAP % change from baseline (Beagle dogs [3]; 10 mg/kg bolus IV) | MAP % change from baseline (Beagle dogs [3]; 15 mg/kg bolus IV) | MAP % change from baseline (Beagle dogs [3]; 30 mg/kg bolus IV) | duration of anesthesia (sleep time) (Beagle dogs [5]; 5 mg/kg bolus IV, dogs) [min] | duration of anesthesia (sleep time) (Beagle dogs [5]; 10 mg/kg bolus IV, dogs) [min] | duration of anesthesia (sleep time) (Beagle dogs [5]; 15 mg/kg bolus IV, dogs) [min] | duration of anesthesia (sleep time) (Beagle dogs [5]; 30 mg/kg bolus IV, dogs) [min] | other results |
| --- | --- | --- | --- | --- | --- | --- | --- | --- | --- | --- | --- |
| CC[C@H](C)c1cccc([C@@H](C)CC)c1O (single isomer, unassigned) [(S,S)] | 6.3 | 4 | 5.2 | +7% | +5% | 0% | 8 | 24 | 50 | 50 | TI (therapeutic index, ratio of MTD to HD7 min) (male Sprague-Dawley rats [1]; bolus IV, rats): 8.1; MTD [2]: 42 mg/kg; deaths (male Sprague-Dawley rats [4]): One of six rats died |
| CN1CC[C@]23c4c5ccc(O)c4O[C@H]2[C@@H](O)C=C[C@H]3[C@H]1C5.O=S(=O)(O)O [Morphine sulfate] | – | – | – | – | – | – | – | – | – | – | episodes of vomiting (ferrets; [11]): 15; retches (ferrets; [11]): 157 |
| CC[C@@H](C)c1cccc([C@@H](C)CC)c1O [(meso), (meso)-2,6-di-sec-butylphenol] | 12.7 | – | – | +5% | +15% | −16% | 25 | 36 | 55 | 58 | deaths (rats; 21 mg/kg, rats): One of 6 rats; duration of anesthesia (rats; 21 mg/kg, remaining 5 rats): 34 min; quality of anesthesia (smoothness of induction, muscle tone, involuntary motion) (Beagle dogs [5]; bolus IV, dogs): inferior |
| CC(C)c1cccc(C(C)C)c1O [Propofol, 2,6-diisopropylphenol, reference compound] | 7.1 | 3.8 | 7.0 | −22% | −32% | −66%* | – | – | – | – | Cardiac output versus baseline (mongrel dogs): significantly reduced from baseline; inhibition at 10 µM [6]: > 20%; LORR produced (male Sprague-Dawley rats [1]; 3.5 mg/kg bolus IV, 6 rats): no LORR in 4 of 6 rats; IV infusion time producing maximal suppression of BIS (pigs [7]): 9.4 ± 1.9 min; AUC (in vivo): 1810 ng·h/mL; effects at alpha2, NMDA, PCP, benzodiazepine or opioid receptors [8]: No significant effects; lowest HR measured (pigs [9]): 88±6 bpm; retches (ferrets; [12]): 47; vomits (ferrets; [12]): 3; aqueous phase concentration [10]: 6.28 ± 0.41 µg/mL; dogs reaching the MTD (MAP reduced by 50% or to less than 50 mmHg) (Beagle dogs [5]; dog, in vivo, iv): Two of 3 dogs |
